For series [1] the following is noted: in vivo; cited from earlier work.
For series [2] the following is noted: in vivo; cited from earlier work. The source holds these as a separate data set.
The subject of series [3] is rodent models of depression. Particulars: cited from earlier work.
Series [4] relates to animal models of brain injury and stroke. Particulars: cited from earlier work.
The test system of series [5] is chronic anorexia nervosa. The series can be described thus: Case study: ketogenic diet followed by IV ketamine infusions in a patient with chronic anorexia nervosa. The class given is in vivo, human.
Series [6] relates to patients. Particulars: usually; rarely longer than 2 hours; cited from earlier work.
In series [7] the test system is healthy volunteers. Particulars: 80-minute infusion of 0.4 or 0.8 mg/kg, 3 days later; cited from earlier work.
For series [8] the following is noted: up to 4 doses of 0.1-0.5 mg/kg IV over 2 weeks, 8-month follow-up; cited from earlier work.
Series [9] concerns patients with eating disorders. The settings on record: 10-hour infusions of 20 mg/hour; cited from earlier work.
The conditions of series [10]: 10 4-hour infusions of up to 20 mg/hour; cited from earlier work.
In series [11] the test system is patients treated for depression. The settings on record: 6630 patients, six or more repeated parenteral infusions for depression; cited from earlier work.
The conditions of series [12]: in vivo; cited from earlier work. The source holds these as a separate data set.
The conditions of series [13]: in vivo, cited from earlier work.

Ends that are not written are not given here.

On to `Cc1ncc2n1-c1ccc(Cl)cc1C(c1ccccc1F)=NC2` [Midazolam], for which the “half-life (t½)” value in [1] is 2.5 h.

As for `N[C@@]1(c2ccccc2Cl)CCC[C@@H](O)C1=O` [(2R,6R)-HNK], in series [2], the hypnotic effect result is on record as “non-hypnotic” and the “role in antidepressant effects of ketamine” value is recorded as “essential for the antidepressant effects of ketamine”.

Consider `C[C@@H](CN1CCC(Cc2ccccc2)CC1)[C@@H](O)c1ccc(O)cc1` [Ro 25-6981], for which the antidepressant actions result in [3] is “rapid antidepressant actions”.

In the case of `C[C@@H]([C@@H](O)c1ccc(O)cc1)N1CCC(O)(c2ccccc2)CC1` [CP-101,606], the protection entry in series [4] is recorded as “protective”.

On to `CNC1(c2ccccc2Cl)CCCCC1=O` (racemic) [ketamine, (RS)-2-(2-chlorophenyl)-2-(methylamino)cyclohexanone], for which, in [5] (40-minute IV infusion 0.75 mg/kg (42.68 mg) after 3 months on ketogenic diet, moderate ketosis for 14 days), the “onset of effect on anorexic thoughts (AN voice) after first infusion” value is given as “Within one hour, they felt the AN voice was weakening”. Moreover, the “anorexia symptoms by the end of treatment” value in series [5] (four infusions over 15 days (0.75, 1.0, 1.1, 1.2 mg/kg) on ketogenic diet) is recorded as “they no longer felt anorexic any more”. In addition, in [5] (four infusions over 15 days on ketogenic diet), the “compulsive exercise by the end of treatment” value is “They could exercise and stop exercising at their own wish”. This compound yielded a BMI in series [5] (throughout the treatment (duration 15 days) and months after) of around 20.8. In addition, the “duration of dissociative symptoms” value in series [6] is “less than 60 minutes”. In [7], the residual effects entry was “does not result in any residual effects”. In series [8], the adverse events result is given as “no adverse events”. In series [9], the “side effects (headache, nausea, sedation, revival of distant memories)” value is recorded as “no longer occurred after the first infusion or were no longer seen as unpleasant”. Besides, the “patients experiencing restlessness, headaches, or significant heart rate increases” value in [10] is given as 7-13%. Also, the “patients with a side effect that led to discontinuation of treatment” value in series [11] is on record as 0.7%.

With `CN[C@@]1(c2ccccc2Cl)CCCCC1=O` [(R)-ketamine], the “antidepressant effects and psychotomimetic side effects” value in [12] was “rapid-onset and sustained antidepressant effects without psychotomimetic side effects”.

With “Thr-Pro-Pro-Thr-NH2 (TPPT-NH2) [Rapastinel, amidated tetrapeptide, NMDA receptor glycine site partial agonist]”, the oral activity result in series [13] (po) is “not active orally”. The “blood brain barrier crossing” value in series [13] is on record as “rapidly crosses the blood brain barrier”.

(Values after patent publication US12144786B2 (priority 2020, dated 2024).)
